Read-outs that look alike come from different tables or passages of the source. Where a SMILES comes first, the peptide text is derived from it. Where no end group is shown, it is not given here. [ ]: non-standard residue; d: D form. The star is where a group is joined. hArg = N=C(N)NCCCC[C@H](N)C(=O)O; Hexanoyl = CCCCCC(=O)*; Aib = CC(C)(N)C(=O)O
Experiments:
human PAC1 [1] = molecular target: T1, human PAC1 (Homo sapiens, UniProt P41586); experiment: DiscoveRx cAMP in vitro potency, CHO-PO cells transiently transfected with human PAC1 receptor; type: cell-based; set-up: expressed in transfected cells; host or cells: CHO-PO, transient (Lipofectamine)
T1 sequence (P41586 21-468): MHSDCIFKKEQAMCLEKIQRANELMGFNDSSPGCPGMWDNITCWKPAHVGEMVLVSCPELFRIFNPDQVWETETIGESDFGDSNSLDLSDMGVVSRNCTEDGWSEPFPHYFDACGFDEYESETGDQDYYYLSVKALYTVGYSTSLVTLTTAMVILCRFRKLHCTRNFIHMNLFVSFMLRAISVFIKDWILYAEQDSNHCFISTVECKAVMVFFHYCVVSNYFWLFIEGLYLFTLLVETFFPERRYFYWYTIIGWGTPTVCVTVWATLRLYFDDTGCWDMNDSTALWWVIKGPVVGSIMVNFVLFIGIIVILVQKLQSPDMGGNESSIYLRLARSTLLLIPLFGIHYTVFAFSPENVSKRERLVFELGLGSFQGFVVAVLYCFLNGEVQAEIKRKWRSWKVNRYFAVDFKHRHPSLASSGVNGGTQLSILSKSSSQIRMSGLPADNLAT
Description: (§1) Also, the cells are washed twice. The cells are incubated in assay buffer plus IBMX for 15 minutes at room temperature. […] The stimuli are present for 30 minutes. Then, the assay buffer is gently removed. […] At day 3, the assay described above for the VPAC2 receptor cell line is performed.

human VPAC1 [2] = molecular target: T2, human VPAC1 (Homo sapiens, UniProt P32241); experiment: DiscoveRx cAMP in vitro potency, CHO-PO cells transiently transfected with human VPAC1 receptor; type: cell-based; set-up: expressed in transfected cells; host or cells: CHO-PO, transient (Lipofectamine)
T2 sequence (P32241 31-457): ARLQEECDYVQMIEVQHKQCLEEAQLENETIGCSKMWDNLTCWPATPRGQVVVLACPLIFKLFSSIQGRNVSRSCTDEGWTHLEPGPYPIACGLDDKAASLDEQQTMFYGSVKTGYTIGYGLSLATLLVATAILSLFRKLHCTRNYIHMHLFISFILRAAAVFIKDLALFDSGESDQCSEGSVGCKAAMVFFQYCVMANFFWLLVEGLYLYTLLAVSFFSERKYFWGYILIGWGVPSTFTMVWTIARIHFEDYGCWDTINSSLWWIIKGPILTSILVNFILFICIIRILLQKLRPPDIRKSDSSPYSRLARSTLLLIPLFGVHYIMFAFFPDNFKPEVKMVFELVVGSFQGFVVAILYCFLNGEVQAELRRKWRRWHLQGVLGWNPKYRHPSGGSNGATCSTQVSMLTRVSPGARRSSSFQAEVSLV
Description: as §1

human VPAC1 [3] = molecular target: T2, human VPAC1; experiment: Filter binding assay, membranes of cells transiently transfected with human VPAC1, 125I-labeled VIP tracer (Table 2); set-up: expressed in transfected cells; settings: read-out: Human VPAC1 Receptor Binding
Outline: (§2)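 Radioligand displacement was measured with 2.5 μg membrane protein per well and roughly 40000 cpm of iodinated tracer. After a 1-hour incubation, bound and free label were separated on BSA-blocked glass-fibre filters and quantified by scintillation.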

[4] = Rat serum stability studies (remaining active peptide by DiscoveRx cAMP on CHO-VPAC2 cells); type: in vitro ADME
Outline: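 EC50 from a DiscoveRx cAMP read-out on CHO-VPAC2 cells indexes how much peptide stays active after 18 h in rat serum at 37° C without aprotinin, against an aprotinin-protected 4° C aliquot.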

human VPAC2 [5] = molecular target: T3, human VPAC2 (Homo sapiens, UniProt P41587); experiment: Filter binding assay, membranes of stable VPAC2 cell line, 125I-labeled VIP tracer (Table 2); settings: read-out: Human VPAC2 Receptor Binding
T3 construct: expressed in transfected cells
T3 sequence (P41587 24-438): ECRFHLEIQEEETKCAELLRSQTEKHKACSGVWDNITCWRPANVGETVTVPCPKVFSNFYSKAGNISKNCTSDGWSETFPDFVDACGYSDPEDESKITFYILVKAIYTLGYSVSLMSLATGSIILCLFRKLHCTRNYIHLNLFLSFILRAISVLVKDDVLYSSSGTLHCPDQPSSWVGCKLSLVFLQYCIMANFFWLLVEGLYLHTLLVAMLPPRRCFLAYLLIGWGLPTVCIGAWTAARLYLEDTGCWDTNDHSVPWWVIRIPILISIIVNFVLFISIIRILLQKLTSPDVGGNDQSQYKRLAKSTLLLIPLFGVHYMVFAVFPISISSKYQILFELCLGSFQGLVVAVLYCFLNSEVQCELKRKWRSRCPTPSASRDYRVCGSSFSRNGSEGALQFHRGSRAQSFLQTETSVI
Outline: as §2

human VPAC2 [6] = molecular target: T3, human VPAC2; experiment: Alpha screen cAMP in vitro potency, human VPAC2 receptor; type: cell-based; settings: cAMP generation; single result from two analyses performed in a single run; read-out: Human VPAC2 Receptor: Alpha Screen EC50
Outline: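 Stimulated cAMP accumulation is read by AlphaScreen after 60 min exposure of 50,000 non-enzymatically harvested cells to compound, followed by lysis with donor beads.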

human PAC1 [7] = molecular target: T1, human PAC1; experiment: Filter binding assay, membranes of cells transiently transfected with human PAC1, 125I-labeled PACAP-27 tracer (Table 2); set-up: expressed in transfected cells; settings: read-out: Human PAC1 Receptor Binding
Outline: as §2

rat VPAC1 receptor = molecular target: T4, rat VPAC1 receptor (Rattus norvegicus, UniProt P30083); experiment: DiscoveRx in vitro potency, CHO-PO cells transiently transfected with rat VPAC 1 receptor DNA; type: cell-based; set-up: expressed in transfected cells; host or cells: CHO-PO, transient
T4 sequence (P30083 31-459): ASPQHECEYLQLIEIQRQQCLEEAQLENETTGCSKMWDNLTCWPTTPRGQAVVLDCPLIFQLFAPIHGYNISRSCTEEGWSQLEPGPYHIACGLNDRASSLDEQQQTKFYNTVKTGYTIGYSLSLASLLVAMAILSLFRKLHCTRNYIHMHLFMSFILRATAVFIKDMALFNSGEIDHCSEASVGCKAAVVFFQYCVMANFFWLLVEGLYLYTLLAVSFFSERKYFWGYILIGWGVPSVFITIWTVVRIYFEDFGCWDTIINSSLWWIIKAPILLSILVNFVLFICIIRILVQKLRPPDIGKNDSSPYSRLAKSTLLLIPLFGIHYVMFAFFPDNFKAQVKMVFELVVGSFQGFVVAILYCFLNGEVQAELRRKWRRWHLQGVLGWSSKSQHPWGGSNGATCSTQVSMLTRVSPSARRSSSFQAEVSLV
Description: (§3) Also, the cells are washed twice. […] The stimuli are present for 30 minutes. Then, the assay buffer is gently removed.

rat VPAC2 receptor = molecular target: T5, rat VPAC2 receptor (Rattus norvegicus, UniProt P35000); experiment: DiscoveRx in vitro potency, CHO-PO cells transiently transfected with rat VPAC 2 receptor DNA; type: cell-based; set-up: expressed in transfected cells; host or cells: CHO-PO, transient
T5 sequence (P35000 23-437): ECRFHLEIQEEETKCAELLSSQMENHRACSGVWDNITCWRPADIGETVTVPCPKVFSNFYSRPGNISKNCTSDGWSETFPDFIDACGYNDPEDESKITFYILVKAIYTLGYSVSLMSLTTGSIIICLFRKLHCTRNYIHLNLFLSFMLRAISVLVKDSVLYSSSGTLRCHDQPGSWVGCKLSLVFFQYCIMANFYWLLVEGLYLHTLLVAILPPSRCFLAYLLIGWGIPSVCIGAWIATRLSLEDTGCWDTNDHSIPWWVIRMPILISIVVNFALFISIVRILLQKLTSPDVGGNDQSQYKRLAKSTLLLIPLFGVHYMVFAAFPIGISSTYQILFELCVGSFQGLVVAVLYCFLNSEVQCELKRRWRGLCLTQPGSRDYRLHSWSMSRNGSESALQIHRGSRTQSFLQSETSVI
Description: as §3

human VPAC2 [8] = molecular target: T3, human VPAC2; experiment: DiscoveRx cAMP in vitro potency, CHO-S cell line stably expressing human VPAC2 receptor; type: cell-based; settings: cAMP generation; mean of two independent runs
Description: as §1

[9] = cAMP generation, mean of two independent runs, read-out: Human VPAC1 Receptor: DiscoveRx EC50
[10] = cAMP generation, mean of two independent runs, read-out: Human PAC1 Receptor: DiscoveRx EC50

Compound	IC50 (human VPAC1 [3])	IC50 (human VPAC2 [5])	EC50 (rat VPAC1 receptor)	EC50 (human VPAC1 [2]; [9])	other results
HSDVVFTDNYTRLRKQVAAKKYLQSIKNKRYGGPSSGAPPPS [Agonist P53]					EC50 (human PAC1 [1]): > 1000 nM; EC50 (human VPAC1 [2]): 118 nM
Hexanoyl-HSDAVFTDNYTRLR[Aib]QIAA[Aib]KYLQSIKNKRYGGPSSGAPPPS [Agonist P322]	> 3000 nM	0.4 nM	0.5 nM		Rat Serum Stability (Estimated purity in % after 72 hours) [4]: 1.3%; Rat Serum Stability (estimated purity in % after 18 hours) [4]: 42.18%; EC50 (human VPAC2 [6]): 0.22 nM; IC50 (human PAC1 [7]): > 25000 nM; EC50 (rat VPAC2 receptor): 0.04 nM
HSDAVFTDNYTRLRKQVAAKKYLQSIRNKRYGGPSSGAPPPS [Agonist P23]	150 nM	0.92 nM		0.9 nM	EC50 (human VPAC2 [8]): 1.41 nM
HSDAVFTDNYTRLRKQVAAKKYLQSIKNKRF [Agonist P34]	79.2 nM	0.92 nM		0.8 nM	
CCCCCC(=O)N[C@@H](Cc1c[nH]cn1)C(=O)N[C@@H](CO)C(=O)N[C@@H](CC(=O)O)C(=O)N[C@@H](C)C(=O)N[C@H](C(=O)N[C@@H](Cc1ccccc1)C(=O)N[C@H](C(=O)N[C@@H](CC(=O)O)C(=O)N[C@@H](CC(N)=O)C(=O)N[C@@H](Cc1ccc(O)cc1)C(=O)N[C@H](C(=O)N[C@@H](CCCCNC(=N)N)C(=O)N[C@@H](CC(C)C)C(=O)N[C@@H](CCCNC(=N)N)C(=O)NC(C)(C)C(=O)N[C@@H](CCC(N)=O)C(=O)N[C@H](C(=O)N[C@@H](C)C(=O)N[C@@H](C)C(=O)NC(C)(C)C(=O)N[C@@H](CCCCN)C(=O)N[C@@H](Cc1ccc(O)cc1)C(=O)N[C@@H](CC(C)C)C(=O)N[C@@H](CCC(N)=O)C(=O)N[C@@H](CO)C(=O)N[C@H](C(=O)N[C@@H](CCCCNC(=N)N)C(=O)N[C@@H](CCCCNC(=N)N)C(=O)NCC(=O)NCC(=O)N1CCC[C@H]1C(=O)N[C@@H](CO)C(=O)N[C@@H](CO)C(=O)NCC(=O)N[C@@H](C)C(=O)N1CCC[C@H]1C(=O)N1CCC[C@H]1C(=O)N1CCC[C@H]1C(=O)N[C@@H](CS)C(N)=O)[C@@H](C)CC)C(C)C)[C@@H](C)O)[C@@H](C)O)C(C)C [Agonist P333] (Hexanoyl-HSDAVFTDNYT[hArg]LR[Aib]QVAA[Aib]KYLQSI[hArg][hArg]GGPSSGAPPPC-NH2)	> 3000 nM	9.71 nM	1.37 nM		Rat Serum Stability (Estimated purity in % after 72 hours) [4]: 61.2%; Rat Serum Stability (estimated purity in % after 18 hours) [4]: 40.90%; EC50 (human VPAC2 [6]): 0.75 nM; EC50 (rat VPAC2 receptor): 0.13 nM
HSDAVLTDNYTRLRKQVAAKKYLQSIKNKRYGGPSSGAPPPS [Agonist P64]				221 nM	EC50 (human VPAC2 [8]): > 1000 nM
Hexanoyl-HSDAVFTDNYTRLLAKVAAKKYLQSIKNKRYGGPSSGAPPPS [Agonist P135]	251 nM	0.43 nM	0.02 nM		EC50 (human VPAC2 [6]): 0.18 nM; IC50 (human PAC1 [7]): 748 nM; EC50 (rat VPAC2 receptor): 0.05 nM
HSDAVVTDNYTRLRKQVAAKKYLQSIKNKRYGGPSSGAPPPS [Agonist P66]				< 1000 nM	EC50 (human VPAC2 [8]): > 1000 nM
H-HSDAVFTDNYTRLRKQVAAKKYLQSI[hArg]NKRYGGPSSGAPPPS [Agonist P22]	123 nM	0.87 nM		0.9 nM	
H-HSDAVFTDNYTRFRKQVAAKKYLQSIKNKRYGGPSSGAPPPS [Agonist P26]				0.9 nM	
H-HSDAVTTDNYTRLRKQVAAKKYLQSIKNKRYGGPSSGAPPPS [Agonist P65]				> 1000 nM	EC50 (human PAC1 [1]; [10]): 0.7 nM; EC50 (human VPAC2 [8]): > 1000 nM
H-HSDLVFTDNYTRLRKQVAAKKYLQSIKNKRYGGPSSGAPPPS [Agonist P55]				134 nM	EC50 (human PAC1 [1]; [10]): > 1000 nM
HSDAVFTDNYTRLRKQVAAKKYLQSIKNKIYGGPSSGAPPPS [Agonist P76]				0.8 nM	
Hexanoyl-HSEAVFTENYTRLR[Aib]QVAA[Aib]KYLQSIKNKRYGGPSSGAPPPS [Agonist P314]	> 3000 nM	0.57 nM	29.2 nM		Rat Serum Stability (estimated purity in % after 18 hours) [4]: 8.44%; EC50 (human VPAC2 [6]): 0.22 nM; IC50 (human PAC1 [7]): > 25000 nM
Hexanoyl-HSDAVFTDNYTRL[Aib]KQVAAK[Aib]YLQSIKNKRYGGPSSGAPPPS [Agonist P244]	> 3000 nM	26.9 nM	127 nM		Rat Serum Stability (Estimated purity in % after 72 hours) [4]: 6.2%; Rat Serum Stability (estimated purity in % after 18 hours) [4]: 30.64%; IC50 (human PAC1 [7]): > 25000 nM
Hexanoyl-HSDAVFTDNYTRLR[Aib]QLAAK[Aib]YLQSIKNKRYGGPSSGAPPPS [Agonist P284]	> 3000 nM	0.38 nM	0.44 nM		Rat Serum Stability (estimated purity in % after 18 hours) [4]: 27.89%; EC50 (human VPAC2 [6]): 0.18 nM; IC50 (human PAC1 [7]): > 25000 nM; EC50 (rat VPAC2 receptor): 0.07 nM
HSDAVITDNYTRLRKQVAAKKYLQSIKNKRYGGPSSGAPPPS [Agonist P63]				> 1000 nM	EC50 (human VPAC2 [8]): > 1000 nM

Reference: patent US20080026996A1, “Selective Vpac2 Receptor Reptide Agonists” (ELI LILLY AND COMPANY, priority 2004, published 2008)
